Measurements taken from patent US20050004144A1, “Combined use of IMPDH inhibitors with toll-like receptor agonists” (REGENTS OF THE UNIVERSITY OF CALIFORNIA, priority 2003, published 2005).
Entries after “also recorded” stand apart in the source; their conditions may differ. Like-named read-outs stand apart in the source and are kept apart here.

How the values were obtained:
[1] = tested on: DNA dependent protein kinase catalytic subunit (DNA-PKcs); assay: Activation of DNA-PK in BMDM (in vitro kinase assay, GST-p53 substrate or autophosphorylation); assay type: cell-based
Description: IMPDH inhibitors and TLR7 activate DNA-PK. BMDM were stimulated with the Mb alone, TOG alone, or a combination of Mb and TOG. Activation of DNA-PK was measured by in vitro kinase assay using a GST-p53 substrate or DNA-PKcs autophosphorylation.
Activation of DNA-PK was measured by in vitro kinase assay using a GST-p53 substrate or DNA-PKcs autophosphorylation.

[2] = tested on: human peripheral blood leukocytes (hPBL); assay: IL-12 production in human peripheral blood leukocytes (ELISA); assay type: cell-based; conditions: TOG 100 μM, 24 hours
[3] = tested on: human peripheral blood mononuclear cells; assay: Cytokine production of TLR-L-stimulated human peripheral blood mononuclear cells with IMPDH inhibitors; assay type: cell-based
STAT-1 = STAT-1 activation in hPBL (western blotting); assay type: cell-based, human; conditions: by TOG, R-848 1 μM plus increasing doses, 3 hrs
Description: In the right panel, hPBL were stimulated with R-848 (1 μM) plus increasing doses of Mb or ribavirin (Rb) for 3 hrs and activation of STAT-1 was measured by western blotting. β-actin levels were measured as a control

[4] = tested on: IRF-1, IRF-3, IRF-7, NF-kB, STAT-1; assay: Activation of IRFs, NF-kB and STAT-1 in BMDM (immunoblotting of nuclear extracts, EMSA); assay type: cell-based, mouse
[5] = tested on: Type I interferon in serum; assay: Type I interferon in serum of mice injected with TOG and Mb; assay type: in vivo; conditions: mice injected intravenously with TOG 250 μg and increasing doses of Mb
Description: (§1) Type I interferon in serum was measured and results are shown.

[6] = tested on: Mouse bone marrow-derived macrophages (BMDM); assay: Cytokine production of TLR ligand-stimulated BMDM with IMPDH inhibitors (ELISA); assay type: cell-based; conditions: for IL-12 production with TOG plus IMPDH inhibitor: TOG 100 μM, mizoribine 10 μM or mizoribine base 10 μM; for cytokine production induced by several different TLR-L: mouse bone marrow derived macrophages
[7] = tested on: bone marrow derived dendritic cells (DC's); assay: TLR7 signaling in bone marrow derived dendritic cells; assay type: cell-based; conditions: DC's stimulated by R-848 with Mb
Description: Bone marrow derived DC's were stimulated by R-848 with or without Mb for the indicated time period, and activation of NF-κB, MAP kinases (p38 and EKR) was measured. Actin levels were measured as a control.

splenocytes = assay: Type I interferon production by splenocytes (bioassay); assay type: cell-based, mice; conditions: for TLR7 mediated type I interferon production in splenocytes: TOG or R-848 with or without Mb 10 μM, 24 hrs
Description: as §1
Splenocytes of WT or SCID mice were stimulated with the indicated stimuli and Type I interferon was by bioassay.
(FIG. 20.) Splenocytes of WT or SCID mice were stimulated with the indicated stimuli and Type I interferon levels were determined by bioassay.

mice [8] = assay: ISS pre-priming before β-gal immunization (splenocyte IFN-γ and CTL response); assay type: in vivo; conditions: ISS up to 14 days prior to β-gal, compared to β-gal alone (P≦0.05)
Source text: FIG. 3 depicts splenocyte CTL and IFN-γ response after intradermal ISS pre-priming. Results represent the mean ± SE for four mice in each group and similar results were obtained in two other independent experiments. […] (a) IFN-γ response. […] (C) Comparison of CTL response at an effector:target ratio of 25:1.
In this experiment, the amount of time between which a mouse exposed to an antigen can produce an immune response was examined. (FIG. 3)
The results in FIG. 3 represent the mean ± SE for four mice in each group. Similar results were obtained in two other independent experiments. […] (A) IFN-γ response. […] (C) Comparison of CTL response at an effector:target ratio of 25:1.

BALB/c mice = assay: Systemic adjuvant activity: intradermal immunization with ovalbumin (OVA) and TLR ligand; assay type: in vivo
Description: Recently, the systemic adjuvant activities of other TLR-Ls were evaluated.
Six-week-old BALB/c mice (4 per group) were intradermally immunized with ovalbumin (OVA) (20 ug) and TLR ligand on day 0 and day 7. During week 6, serum was collected and splenocytes were harvested and cultured with OVA (50 ug/ml). After 3 days, splenocyte culture supernatants were collected. Sera Ig levels and splenocyte supernatant cytokine levels were determined by ELISA. Results are reported as means ± standard errors. n.d.=none detected.

[9] = tested on: murine bone marrow mononuclear cells; assay: Cytokine responses of murine bone marrow mononuclear cells to TLR ligands (ELISA); assay type: cell-based; conditions: 48 hours, supernatant ELISA, PolyI:C 100 μg/ml, LPS 1 μg/ml, ISS-ODN 10 μg/ml, n.d.=none detected
Description: The cytokine responses of murine bone marrow mononuclear cells were compared to a TLR2-L (PGS), a TLR3-L (polyI:C), a TLR4-L(LPS), and a TLR9-L (ISS-ODN). IL-12, IL-10, IL-6, IL-1b, and KC (a chemokine) were assayed by ELISA (See 2.1.b Results).
Bone marrow cells were cultured in triplicate at 5×10^5 cells/ml with each TLR ligand in dose response studies covering a 3 log concentration range. The cells were cultured for 48 hours and supernatant cytokine levels were analyzed by ELISA. The minimal optimal concentration for each reagent was reported with a three fold increase in TLR ligand concentration not leading to any significant increase in cytokine production. Results are reported as means ± standard errors. n.d.=none detected

Punta toro = conditions: literature (Smee et al.; Sidwell et al.); cited from earlier work
mice [10] = conditions: cited from earlier work
Listeria monocytogenes = assay: Listeria infection in mice pretreated with TLR ligands; assay type: in vivo; conditions: 10 μg three days before infection with 7×10^5 Listeria monocytogenes, observed nine days
Description: Groups of six mice were injected with 10 μg of either ISS-ODN, Pam3Cys, or polyI:C three days before infection with 7×10^5 Listeria monocytogenes. […] 5 mice also each received 10 μg of R-848, 24 hours before infection. […]

Salmonella = conditions: human macrophages treated overnight with IFN-γ 100 ng/ml; over 24 hours; cited from earlier work
cowpox = conditions: cidofovir 30 mg/kg i.p.; Smee et al. 2002; cited from earlier work
[11] = splenocytes of week 6 cultured 3 days with OVA 50 ug/ml, supernatant ELISA, same immunization, n.d.=none detected

Q: Which results are given for NC(=O)c1[nH]cnc1O [mizoribine base]?
A: DNA-PK activation by the combination of TOG and Mb [1]: increased phosphorylation of substrates and earlier onset of phosphorylation; IL-12 production after stimulation with TOG [2]: enhanced the increase of IL-12 production; cytokine production induced by several different TLR-L [3]: potentiated cytokine production; activation of STAT-1 (STAT-1): enchanced activiation; dependence of IRF activation on DNA-PKcs and MyD88 ([4]; cells from wild-type mice and SCID mice): via DNA-PKcs but not MyD88; increase of Type I interferon in blood (serum) [5]: augments TLR-7 mediated type I interferon production; IL-12 production with TOG plus IMPDH inhibitor ([6]; 24 hrs): synergize with TOG; cytokine production induced by several different TLR-L [6]: potentiated cytokine production; TLR7 signaling (NF-κB, MAP kinases p38 and EKR) [7]: enhanced TLR7 signaling in DC's; TLR7 mediated type I interferon production in splenocytes (splenocytes): augments TLR-7 mediated type I interferon production; dependence of type I interferon induction by TOG combined with Mb on DNA-PKcs (splenocytes; splenocytes of WT or SCID mice, TOG 100 μM, Mb 10 μM): partially dependent on DNA-PKcs

Q: Which CTL response (mice [8]) does the source give for “m-ODN: control mutated ODN 5′-TGACTGTGAAGGTTAGAGATGA-3′ that lacks ISS activity (DNA, all phosphorothioate, methylation of C not given here)” here?
A: The CTL response was “did not demonstrate an increased IFN-γ or CTL response”.

Q: And the “splenocyte IFN-γ response” value (mice [8])?
A: The value was “did not demonstrate an increased IFN-γ or CTL response”.

Q: For PolyI:C, which “systemic adjuvant activity for vaccination” value (BALB/c mice; mouse, in vivo) is on record?
A: Its value is “effective systemic adjuvants”.

Q: And the IgGl (BALB/c mice; serum, week 6, OVA 20 ug + TLR ligand i.d. day 0 and day 7, PGS 50 ug, PolyI:C 50 ug, LPS 20 ug, ISS-ODN 50 ug)?
A: The IgGl was 18853 ± 2439 U/ml.

Q: And the IgG2a (BALB/c mice; serum, week 6, OVA 20 ug + TLR ligand i.d. day 0 and day 7, PGS 50 ug, PolyI:C 50 ug, LPS 20 ug, ISS-ODN 50 ug, n.d.=none detected)?
A: The IgG2a was 2642 ± 380 U/ml.

Q: What about the IFNg (BALB/c mice; [11]) of the same compound?
A: The IFNg was 672 ± 322 pg/mL.

Q: And the IL-5 (BALB/c mice; [11])?
A: The IL-5 was 236 ± 87 pg/mL.

Q: What about the IL-12 ([9]; 5×10^5 cells/ml, minimal optimal concentration: PGS 100 μg/ml, means ± standard errors) of the same compound?
A: Its IL-12 is 570 ± 62 pg/mL.

Q: What about the IL-1b ([9]; PGS 100 μg/ml) of the same compound?
A: Its IL-1b is 148 ± 27 pg/mL.

Q: And the IL-6 ([9]; PGS 100 μg/ml)?
A: Its IL-6 is 2380 ± 657 pg/mL.

Q: What about the IL-10 ([9]; PGS 100 μg/ml) of the same compound?
A: Its IL-10 is 1374 ± 237 pg/mL.

Q: What about the KC ([9]; chemokine, PGS 100 μg/ml) of the same compound?
A: Its KC is 349 ± 62 pg/mL.

Q: Which “protection of mice from Punta toro virus infection” value (Punta toro) does the source give for CCCCCCn1cnc2c(=O)[nH]c(N)nc21 [9-hexylguanine] here?
A: The value was “protected mice from lethal infection”.

Q: Which “IL-12 production after stimulation with TOG” value [2] does the source give for NC(=O)c1ncn([C@@H]2O[C@H](CO)[C@@H](O)[C@H]2O)n1 [Ribavirin] here?
A: The value was “enhanced the increase of IL-12 production”.

Q: What about the “cytokine production induced by several different TLR-L” value [3] of the same compound?
A: The value was “potentiated cytokine production”.

Q: What about the “activation of STAT-1” value (STAT-1) of the same compound?
A: The value was “enchanced activiation”.

Q: What about the “TOG-induced NF-κB activation (EMSA) and IRF-3 (western blotting)” value ([4]; BMDM, TOG with Rb 50 μM) of the same compound?
A: The value was “enhances TOG-induced NF-κB activation and activates IRF-3 transcription factor”.

Q: What about the “protection of mice from Punta toro virus infection” value (Punta toro) of the same compound?
A: Its value is “significant activity”.

Q: And the “IL-6 production by R-848 in the presence of ribavirin” value ([6]; macrophages, abolished by addition of guanosine to the media (not shown))?
A: Its value is “enhancement of IL-6 production by R-848”.

Q: What about the “cytokine production induced by several different TLR-L” value [6] of the same compound?
A: The value was “potentiated cytokine production”.

Q: And the “cytokine induction by ribavirin alone” value ([6]; no TLR ligand)?
A: The value was “did not induce any cytokines”.

Q: And the “TLR-mediated production of IL-12 (p40) in the presence of ribavirin” value ([6]; ribavirin 10, 50, 100 μM, TLR ligands TOG 100 μM, R-848 1 μM, Pam3Cys 5 μg, p(I:C) 5 μg, LPS 10 ng, ISS 5 μg, 24 hrs)?
A: Its value is “enhances TLR-mediated production of IL-12 (p40) in a dose dependent manner”.

Q: With Nc1nc2c(ccn2[C@@H]2O[C@H](CO)[C@@H](O)[C@H]2O)c(=O)[nH]1 [7-deazaguanosine] as the compound, how does the toxicity to mice (mice [10]; after systemic administration) read?
A: The toxicity to mice was “remarkably non-toxic to mice”.

Q: What about the “protection of mice from Punta toro virus infection” value (Punta toro) of the same compound?
A: Its value is “protected mice from lethal infection”.

Q: Which “protection (survival) of mice from Listeria infection” value (Listeria monocytogenes) does the source give for Pam3Cys here?
A: The value was “lived longer than controls”.

Q: For COc1c(C)c2c(c(O)c1C/C=C(\C)CCC(=O)O)C(=O)OC2 [mycophenolic acid], which “IL-12 production after stimulation with TOG” value [2] is on record?
A: Its value is “enhanced the increase of IL-12 production”.

Q: With Nc1nc2c(sc(=O)n2[C@@H]2O[C@H](CO)[C@@H](O)[C@H]2O)c(=O)[nH]1 [TOG, 7-thia-8-oxoguanosine] as the compound, how does the “activation of DNA-PKcs” value ([1]; single agents) read?
A: Its value is “activate DNA dependent protein kinase catalytic subunit (DNA-PKcs)”.

Q: And the “levels of nuclear IRF-1, IRF-3 and IRF-7” value ([4]; bone marrow cells exposed to TOG)?
A: The value was “increase markedly”.

Q: What about the toxicity to mice (mice [10]; mouse, in vivo) of the same compound?
A: The toxicity to mice was “remarkably non-toxic to mice”.

Q: What about the “protection of mice from Punta toro virus infection” value (Punta toro) of the same compound?
A: Its value is “protected mice from lethal infection; also recorded: significant activity”.

Q: With NC(=O)c1ncn([C@@H]2O[C@H](CO)[C@@H](O)[C@H]2O)c1O [Mizoribine, mizoribine] as the compound, how does the “cytokine production induced by several different TLR-L” value [3] read?
A: Its value is “potentiated cytokine production”.

Q: And the “increase of Type I interferon in blood (serum)” value [5]?
A: The value was “more than 4 fold”.

Q: And the “IL-12 production with TOG plus IMPDH inhibitor” value ([6]; 24 hrs)?
A: Its value is “synergize with TOG”.

Q: What about the “cytokine production induced by several different TLR-L” value [6] of the same compound?
A: Its value is “potentiated cytokine production”.

Q: What about the “TLR7 mediated type I interferon production in splenocytes” value (splenocytes) of the same compound?
A: The value was “more than two-fold”.

Q: For IFN-γ, which “killing of the inoculum” value (Salmonella) is on record?
A: Its value is 90-99%.

Q: For Nc1ccn(C[C@@H](CO)OCP(=O)(O)O)c(=O)n1 [Cidofovir, cidofovir], which lung viral titer (cowpox) is on record?
A: The lung viral titer was ~10^7 PFU/g of lung.

Q: What about the “protection of mice from death” value (cowpox) of the same compound?
A: The value was “protects all mice from death”.
